Laboratory results as given in PubChem BioAssay (NCI).
“And” between values parts separate entries of the source, which are not always exact repeats. Equal entries are not always repeated.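 Exposure lasted 48 hours, with cells grown in 96-well plates and compounds tested at five concentrations. Here, GI50 denotes the concentration required for 50% inhibition of growth. Definition used: TGI = concentration required for complete inhibition of growth.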

Legend:
Assay in all cases: NCI anticancer screen, dose series, 48 h
A498 renal = test system: A498 renal
A549 NSCLC = test system: A549 NSCLC
HCT-116 colon = test system: HCT-116 colon
MCF7 breast = test system: MCF7 breast
NCI-H226 lung = test system: NCI-H226 lung
OVCAR-8 ovarian = test system: OVCAR-8 ovarian
SNB-19 CNS = test system: SNB-19 CNS
SR leukemia = test system: SR leukemia
UO-31 renal = test system: UO-31 renal
MALME-3M melanoma = test system: MALME-3M melanoma

Compound | GI50 (A498 renal) [µM] | TGI (A498 renal) [µM] | GI50 (A549 NSCLC) [µM] | TGI (A549 NSCLC) [µM] | GI50 (HCT-116 colon) | TGI (HCT-116 colon) [µM] | GI50 (MCF7 breast) [µM] | TGI (MCF7 breast) [µM] | GI50 (NCI-H226 lung) | TGI (NCI-H226 lung) [µM] | GI50 (OVCAR-8 ovarian) | TGI (OVCAR-8 ovarian) [µM] | GI50 (SNB-19 CNS) [µM] | TGI (SNB-19 CNS) [µM] | GI50 (SR leukemia) | TGI (SR leukemia) [µM] | GI50 (UO-31 renal) | TGI (UO-31 renal) [µM] | TGI (MALME-3M melanoma) [µM] | GI50 (MALME-3M melanoma) [µM]
OCC1OC(N2C=C(c3nc4ccccc4s3)C3C=CC=CC32)C(O)C(O)C1O (configuration not stated) | 16 | 38.3 | 18.7 | > 50 | 11.5 µM | 42.4 | 18.1 | > 50 | 14.5 µM | > 50 | 18.9 µM | > 50 | 22.1 | > 50 | 15.9 µM | > 50 | 24.8 µM | > 50 | – | –
CCNCC(=O)Nc1ccc2c(c1)C(=O)c1ccc(NC(=O)CNCC)cc1C2=O | – | 6.46 | – | 14.6 | – | 7.52 | – | 5.6 | – | 20 | – | 15.1 | – | 12.1 | – | – | – | 8.9 | 33 | –
COc1cc(CSc2nc3ccc(Cl)cc3c(=O)n2Cc2ccccc2)cc(OC)c1OC | 1.89 | 8.2 | 4.03 | > 100 | 3.72 µM | > 100 | 1.34 | 45.5 | 12.3 µM | > 100 | 5.18 µM | > 100 | 5.46 | > 100 | 0.59 µM | 27.6 | 4.4 µM | > 100 | 39.1 | 5.81
Clc1cc(Br)ccc1-c1ccc(CNCC2CCNCC2)o1 | 1.87 | 4.24 | 1.9 | 3.77 | 1.69 µM | 3.97 | 1.74 | 3.35 | 2.3 µM | 6.25 | 2.19 µM | 5.15 | 2.3 | 7.2 | 0.444 µM | 2.65 | 1.66 µM | 3.24 | 4.11 | 2.33
CCN1/C(=C/C(C)=C/c2sc3ccc4ccccc4c3[n+]2CC)Sc2ccc3ccccc3c21 | 0.181 | 0.759 | 0.0271 | 0.272 | 0.127 µM | 0.293 | 0.149 | 0.42 | 0.225 µM | 1.27 | 0.067 µM | 0.83 | – | – | – | – | 0.181 µM | 0.571 | – | –
COc1ccc(Sc2[nH]c(C=O)c3ccccc23)cc1 | 3.44 | 23.5 | 13.3 | > 100 | 12.7 µM | 25.3 | 12.8 | 30.2 | 2.62 µM | 16.8 | 14.1 µM | 32 | 4.78 | 18.5 | – | – | 5.11 µM | 22.2 | 38.8 | 14.2
CCCCN(CCCC)P(=O)(Oc1ccccc1)Oc1ccccc1 | 11.6 | 24.1 | 5.06 | 19.6 | 3.39 µM | 16.8 | 4.83 | 18.6 | 10.4 µM | 25.4 | 11.1 µM | 27.4 | 8.82 | 23.5 | 7.34 µM | 68.5 | – | – | – | –
CC[C@]12CN3CCc4c([nH]c5ccccc45)[C@@](C(=O)OC)(c4cc5c(cc4OC)N(C)[C@H]4[C@@](O)(C(=O)OC)[C@H](OC(C)=O)[C@]6(CC)C=CCN7CC[C@]54[C@@H]76)CC(C3)[C@H]1O2 (some centres not stated) | 0.241 | – | 0.599 | > 100 | 0.147 µM | > 100 | 0.0181 | > 33.9 | 0.462 µM | > 50 | 0.273 µM | > 100 | 0.214 | > 100 | – | – | 1.83 µM | > 88.5 | > 50 | 0.0639
COc1ccc(-c2cnc(-c3ccc(OC)cc3)n2-c2cc(OC)c(OC)c(OC)c2)cc1 | 12.1 | 39.5 | 23.1 | 82.2 | 30.9 µM | > 100 | 38.5 | > 100 | 36.7 µM | > 100 | 19.7 µM | 50.7 | 19.8 | 60.5 | – | – | 18.2 µM | 50 | 30.6 | 13.3
N#Cc1c(N)nc2c(c1-c1ccc(Cl)cc1)COc1ccc(F)cc1-2 | 22.3 | 52.3 | 43.5 | > 100 | 36.8 µM | > 100 | 17.9 | > 100 | – | – | 32.5 µM | > 100 | – | – | – | – | 13.8 µM | 39.2 | 81.7 | 40.3
COc1ccc2c(n1)Sc1nc3ccccc3nc1N2 | – | > 100 | – | > 100 | – | > 100 | – | > 100 | – | 34 | – | 57 | – | > 100 | – | – | – | 89.1 | > 100 | –
Cc1[nH]c2ccccc2c1CO | 17.2 | 56.2 | 38.3 | > 100 | 15.2 µM | 28.5 | 21.3 | 51.5 | 25.8 µM | 93.9 | 31 µM | > 100 | 39.3 | > 100 | 25.1 µM | > 100 | 10.9 µM | 31.7 | – | –
COc1cc2c3c(n(CCCN=[N+]=[N-])c(=O)c2cc1OC)-c1ccc([N+](=O)[O-])cc1C3=O | 96.7 | > 100 | > 100 | > 100 | > 100 µM | > 100 | 27.9 | > 100 | – | – | > 100 µM | > 100 | > 100 | > 100 | 4.38 µM | 22.9 | 20 µM | > 100 | > 100 | > 100
CCCCCCCCCCCCCCCCn1cc[n+](C)c1 | 0.109 | 0.76 | 0.326 | 1.6 | 0.267 µM | 1.22 | 0.367 | 1.52 | – | – | – | – | 0.705 | 2 | 0.0742 µM | 0.787 | 1.04 µM | 2.24 | 1.51 | 0.357
COc1cc2c3c(n(CCCN=[N+]=[N-])c(=O)c2cc1OC)-c1ccccc1C3=O | – | – | 26.2 | > 100 | 1.81 µM | 17.8 | 5.35 | > 100 | – | – | 5.68 µM | > 100 | 52.7 | > 100 | – | – | > 100 µM | > 100 | – | –
CC(=O)OCC1OC(SC2=N/C(=C\c3ccc(Br)s3)C(=O)N2c2ccccc2)C(OC(C)=O)C(OC(C)=O)C1OC(C)=O (configuration not stated) | – | > 100 | – | – | 25.5 µM and 61.2 µM | > 100 | – | > 100 | 46.9 µM and 15.7 µM | > 100 | 27.9 µM and 70.3 µM | > 100 | – | > 100 | 35.6 µM and 9.68 µM | > 100 | 71.4 µM and 32.7 µM | > 100 | > 100 | –
ClCc1ccccc1Cn1cnc2nc(Cl)nc(Cl)c21 | 2.13 | 4.83 | 5.29 | 13.2 | 0.115 µM | 0.236 | – | – | 1.18 µM | 9.52 | 2.54 µM | 8.88 | 1.14 | 2.51 | 0.64 µM | 5.66 | 1.26 µM | 2.52 | 7.75 | 1.68
C=CCCn1nc(-c2ccccc2)oc1=O | – | > 100 | – | > 100 | – | > 100 | – | – | – | > 100 | – | > 100 | – | > 100 | – | > 100 | – | > 100 | > 100 | –
COc1ccc(O)c(/C=N\Nc2ccccc2)c1 | – | 91.6 | – | 48.4 | – | > 100 | – | > 100 | – | > 100 | – | > 100 | – | > 100 | – | – | – | > 100 | – | –
O=C1CCCc2ccc([N+](=O)[O-])c(O)c21 | – | > 100 | – | > 100 | – | > 100 | – | – | – | > 100 | – | > 100 | – | > 100 | – | > 100 | – | > 100 | > 100 | –
O=CN/C=C/c1ccccc1 | – | > 100 | – | > 100 | – | > 100 | – | – | – | > 100 | – | > 100 | – | > 100 | – | > 100 | – | > 100 | > 100 | –
CC(=O)N1c2ccccc2N(C(C)=O)C1c1ccc(C2N(C(C)=O)c3ccccc3N2C(C)=O)[nH]1 | – | > 100 | – | > 100 | – | > 100 | – | – | – | > 100 | – | > 100 | – | > 100 | – | > 100 | – | > 100 | > 100 | –
COc1ccc(C(=O)/C=C/c2cc(-c3ccc(OC)c(OC)c3)n[nH]2)cc1OC | 1.27 | 3.2 | 2.25 | 10.2 | – | – | 0.937 | 8.02 | 1.66 µM | 4.23 | 2.63 µM | 22.4 | 1.67 | 4.16 | – | – | 1.5 µM | 3.8 | 6.21 | 2.59
COc1cccc(S(=O)(=O)NC2=NCCN2C(=S)SN2CCn3c2nsc3=S)c1 | 68.4 | > 100 | > 100 | > 100 | 16.4 µM | 33 | 39.4 | > 100 | 30.9 µM | > 100 | 44.4 µM | > 100 | 49.8 | > 100 | 18 µM | 51.3 | 23.3 µM | 49.1 | – | –
